Structures can show the parent of a compound that is named as a salt.
Key:
[1] = Measurement of concentration of compound in rat plasma; type: in vivo; details: oral 10 mg/kg; for concentration at 0.25 h: after 0.25 hours; for concentration at 1 h: after 1 hour; for concentration at 4 h: after 4 hours
Experimental: Each of the test compounds was dissolved or suspended in methyl cellulose and the resulting solution or suspension was orally administered to rats at a dosage of 10 mg/kg and blood was collected after 0.25 hours, 1 hour and 4 hours. The concentration in plasma in each of the compounds was measured by HPLC.

[2] = test system: collagen production induced by TGF-β (NHDF cells); experiment: Inhibitory effect on collagen production induced by TGF-β, [3H] proline uptake (NHDF cells); type: cell-based, human; details: Homo sapiens, NHDF, TGF-β1 3 ng/ml
Experimental: As an index of collagen production, the uptake of [^3H] proline was measured.
Using a 96-well microplate, normal human skin derived fibroblast (NHDF, 10^4/well) or human embryonic lung fibroblast (TIG-3, 10^4/well) were cultured in a 10% fetal calf serum (FCS)-containing Dulbecco's modified Eagle medium (DMEM) for one day. After removing the culture supernatant, the cells were washed once with a 0.1% bovine serum albumin (BSA)-containing DMEM medium and then cultured in the 0.1% bovine serum albumin (BSA)-containing DMEM medium for one day. After adding each of the test compounds in each concentration (1, 3, 10 μM), the cells were cultured and, after adding TGF-β1 (3 ng/ml) and [^3H] proline (18.5 kBq/well), the cells were further cultured for additional one day.
After removing the culture supernatant, the cells were washed twice with a phosphate buffer solution (PBS) and dissolved with 0.3M NaOH and 1% sodium dodecylsulfate (SDS), and then each protein fraction was precipitated with trichloroacetic acid (TCA) After the precipitate was filtered through a glass filter (GF/B) and washed, the quantity of [^3H] proline on the glass filter was measured by a liquid scintillation counter. The number of cells was measured by a cell growth measuring kit (XTT, Roche) and the uptake of [^3H] proline was corrected by the number of cells. Inhibitory ratio was calculated as compared with the case where a difference between the uptake of [^3H] proline with or without TGF-β1.

SMILES	inhibition at 1 µM [2] [%]	inhibition at 3 µM [2] [%]	also measured
Cc1ccc2c(c1)c(C(=O)N1CCN(c3ccc(-c4nnn(C)n4)cn3)CC1)c(-c1ccccc1)n2C [Example 26, 1,5-dimethyl-2-phenyl-3-[{4-[5-(2-methyl-2H-tetrazol-5-yl)pyridin-2-yl]piperazin-1-yl}carbonyl]-1H-indole]	–	–	concentration at 0.25 h [1]: 230 to 800 ng/mL; concentration at 1 h [1]: 130 to 300 ng/mL; concentration at 4 h [1]: 0 to 92 ng/mL
COc1cc2c(cc1OC)CN(C(=O)/C=C/c1c(-c3ccccc3)[nH]c3ncccc13)CC2 [Example 138, 6,7-dimethoxy-2-[(2E)-3-(2-phenyl-1H-pyrrolo[2,3-b]pyridin-3-yl)prop-2-enoyl]-1,2,3,4-tetrahydroisoquinoline dihydrochloride]	65	53	–
COC(=O)c1ccc(-c2c(/C=C/C(=O)N3CCc4cc(OC)c(OC)cc4C3)c3cc(C)ccc3n2C)cc1 [Example 142, 2-{(2E)-3-[1,5-dimethyl-2-(4-carbomethoxyphenyl)-1H-indol-3-yl]prop-2-enoyl}-6,7-dimethoxy-1,2,3,4-tetrahydroisoquinoline]	65	130	–
Cn1c(-c2ccc3c(c2)OCO3)c(/C=C/C(=O)N(CCCCO)Cc2ccccc2)c2ccccc21 [Example 116, (2E)-N-(4-hydroxybutyl)-N-benzyl-3-[1-methyl-2-(3,4-methylenedioxyphenyl)-1H-indol-3-yl]acrylamide]	–	76	inhibition at 10 µM [2]: 168%
CCOC(=O)C1CCCC1NC(=O)/C=C/c1c(-c2ccccc2)n(C)c2ncccc12 (centres unmarked) [Example 126, Ethyl 2-{N-[(2E)-3-(1-methyl-2-phenyl-1H-pyrrolo[2,3-b]pyridin-3-yl)prop-2-enoyl]amino}-1-cyclopentanecarboxylate]	29	86	–
Cc1cnc2c(c1)c(C(=O)N1CCN(c3cnc(C(=O)NCCc4scnc4C)cn3)CC1)c(-c1ccccc1)n2C [Example 148, 5-{4-[(1,5-dimethyl-2-phenyl-1H-pyrrolo[2,3-b]pyridin-3-yl)carbonyl]piperazin-1-yl}-N-[2-(4-methyl-1,3-thiazol-5-yl)ethyl]pyrazine-2-carboxamide trihydrochloride]	29	53	–
Cc1ncsc1CCNC(=O)c1cnc(N2CCN(C(=O)c3c(-c4ccccc4)n(C)c4ccc(F)cc34)CC2)cn1 [Example 147, 5-{4-[(5-fluoro-1-methyl-2-phenyl-1H-indol-3-yl)carbonyl]piperazin-1-yl}-N-[2-(4-methyl-1,3-thiazol-5-yl)ethyl]pyrazine-2-carboxamide dihydrochloride]	29	59	–
Cn1c(-c2ccc3c(c2)OCO3)c(/C=C/C(=O)N[C@@H]2c3ccccc3C[C@@H]2O)c2ccccc21 [Example 113, (2E)-N-[(1R,2S)-2-hydroxy-2,3-dihydro-1H-inden-1-yl]-3-[1-methyl-2-(3,4-methylenedioxyphenyl)-1H-indol-3-yl]acrylamide]	–	88	inhibition at 10 µM [2]: 148%
COc1cc2c(cc1OC)CN(C(=O)/C=C/c1c(-c3ccccc3)n(C)c3cccnc13)CC2 [Example 136, 2-[(2E)-3-(1-methyl-2-phenyl-1H-pyrrolo[3,2-b]pyridin-3-yl)prop-2-enoyl]-6,7-dimethoxy-1,2,3,4-tetrahydroisoquinoline hydrochloride]	66	111	–
Cc1ccc2c(c1)c(C(=O)N1CCN(c3cnc(C(=O)N(C)[C@@H](Cc4ccccc4)C(=O)O)cn3)CC1)c(-c1ccccc1)n2C [Example 132, N-methyl-N-[(5-{4-[(1,5-dimethyl-2-phenyl-1H-indol-3-yl)carbonyl]piperazin-1-yl}pyrazin-2-yl)carbonyl]-(S)-phenylalanine]	67	122	–
CC(=O)C1(c2ccccc2)CCN(C(=O)C=Cc2c(-c3ccc(C(=O)O)cc3)n(C)c3ccc(C)cc23)CC1 [Example 146, 4-{3-[3-(4-acetyl-4-phenylpiperidin-1-yl)-3-oxo-1-propenyl]-1,5-dimethyl-1H-indol-2-yl}benzoic acid]	43	60	–
CC1c2cc(O)c(O)cc2CCN1C(=O)/C=C/c1c(-c2ccc3c(c2)OCO3)n(C)c2ccccc12 (centres unmarked) [Example 114, 2-{(2E)-3-[1-methyl-2-(3,4-methylenedioxyphenyl)-1H-indol-3-yl]prop-2-enoyl}-1-methyl-6,7-dihydroxy-1,2,3,4-tetrahydroisoquinoline]	–	94	inhibition at 10 µM [2]: 165%
COCn1c(-c2ccccc2)c(/C=C/C(=O)N2CCc3cc(OC)c(OC)cc3C2)c2cccnc21 [Example 139, 2-[(2E)-3-(1-methoxymethyl-2-phenyl-1H-pyrrolo[2,3-b]pyridin-3-yl)prop-2-enoyl]-6,7-dimethoxy-1,2,3,4-tetrahydroisoquinoline hydrochloride]	37	54	–
COc1ccc(-c2c(/C=C/C(=O)N(C)CCC(O)c3ccccc3)c3ccccc3n2C)cc1 (centres unmarked) [Example 119, (2E)-N-methyl-N-(3-hydroxy-3-phenylpropyl)-3-[1-methyl-2-(4-methoxyphenyl)-1H-indol-3-yl]acrylamide]	–	75	inhibition at 10 µM [2]: 153%
Cn1c(-c2ccccc2)c(/C=C/C(=O)N2CCc3ccccc3C2)c2cccnc21 [Example 104, 2-[(2E)-3-(1-methyl-2-phenyl-1H-pyrrolo[2,3-b]pyridin-3-yl)prop-2-enoyl]-1,2,3,4-tetrahydroisoquinoline hydrochloride]	–	–	concentration at 0.25 h [1]: 14 to 19 ng/mL; concentration at 1 h [1]: 44 to 71 ng/mL; concentration at 4 h [1]: 25 to 32 ng/mL
COc1cc2c(cc1OC)CN(C(=O)/C=C/c1c(-c3ccccc3)n(C)c3cnccc13)CC2 [Example 130, 2-[(2E)-3-(1-methyl-2-phenyl-1H-pyrrolo[2,3-c]pyridin-3-yl)prop-2-enoyl]-6,7-dimethoxy-1,2,3,4-tetrahydroisoquinoline hydrochloride]	92	157	–
COc1cccc(-c2c(/C=C/C(=O)N(C)CCC(O)c3ccccc3)c3ccccc3n2C)c1 (centres unmarked) [Example 118, (2E)-N-methyl-N-(3-hydroxy-3-phenylpropyl)-3-[1-methyl-2-(3-methoxyphenyl)-1H-indol-3-yl]acrylamide]	–	81	inhibition at 10 µM [2]: 147%
COC(=O)CC1c2cc(OC)c(OC)cc2CCN1C(=O)/C=C/c1c(-c2ccccc2)n(C)c2ncccc12 (centres unmarked) [Example 133, Methyl {6,7-dimethoxy-2-[(2E)-3-(1-methyl-2-phenyl-1H-pyrrolo[2,3-b]pyridin-3-yl)prop-2-enoyl]-1,2,3,4-tetrahydroisoquinolin-1-yl}acetate hydrochloride]	57	104	–
COc1ccc(N2CCN(C(=O)/C=C/c3c(-c4ccccc4)n(C)c4ncccc34)CC2)cc1 [Example 98, 1-[(2E)-3-(1-methyl-2-phenyl-1H-pyrrolo[2,3-b]pyridin-3-yl)prop-2-enoyl]-4-(4-methoxyphenyl)piperazine]	47	92	–
CCOC(=O)C1CCCCC1NC(=O)c1cnc(N2CCN(C(=O)c3c(-c4ccccc4)n(C)c4ccc(C)cc34)CC2)cn1 (centres unmarked) [Example 127, Ethyl 2-{N-[(5-{4-[(1,5-dimethyl-2-phenyl-1H-indol-3-yl)carbonyl]piperazin-1-yl}pyrazin-2-yl)carbonyl]amino}-1-cyclohexanecarboxylate]	72	78	–
COc1cc2c(cc1OC)CN(C(=O)/C=C/c1c(-c3ccc(F)cc3)n(C)c3ncccc13)CC2 [Example 140, 2-{(2E)-3-[1-methyl-2-(4-fluorophenyl)-1H-pyrrolo[2,3-b]pyridin-3-yl]prop-2-enoyl}-6,7-dimethoxy-1,2,3,4-tetrahydroisoquinoline hydrochloride]	140	171	–
Cn1c(-c2ccccc2)c(/C=C/C(=O)N(CCc2cccs2)CC(=O)O)c2cccnc21 [Example 137, N-[(2E)-3-(1-methyl-2-phenyl-1H-pyrrolo[2,3-b]pyridin-3-yl)prop-2-enoyl]-N-[2-(2-thienyl)ethyl]aminoacetic acid]	38	72	–
COc1cccc2c(/C=C/C(=O)N(C)CCC(O)c3ccccc3)c(-c3ccccc3)n(C)c12 (centres unmarked) [Example 111, (2E)-N-methyl-N-(3-hydroxy-3-phenylpropyl)-3-(1-methyl-2-phenyl-7-methoxy-1H-indol-3-yl)acrylamide]	–	82	inhibition at 10 µM [2]: 168%
COc1cc2c(cc1OC)CN(C(=O)/C=C/c1c(-c3ccccc3)n(C)c3ncc(C)cc13)CC2 [Example 123, 2-[(2E)-3-(1,5-dimethyl-2-phenyl-1H-pyrrolo[2,3-b]pyridin-3-yl)prop-2-enoyl]-6,7-dimethoxy-1,2,3,4-tetrahydroisoquinoline hydrochloride]	55	125	–

Source: patent US20050014942A1, “Amide derivatives and drugs” (priority 2001, published 2005)
